Test results taken from ChEMBL document CHEMBL1201862, “PubChem BioAssay data set” (2004).
Activity calls are given as the source filed them.

Legend:
[1] = target: Intestinal-type alkaline phosphatase (Homo sapiens, UniProt P09923); test: activation of human intestinal alkaline phosphatase – biochemical, dose response (AID 488873); type: functional
[2] = target: Intestinal-type alkaline phosphatase (Mus musculus, UniProt P24822); test: PubChem AID 488785; type: functional
[3] = target: T1, Alkaline phosphatase, tissue-nonspecific isozyme (Homo sapiens, UniProt P05186); test: TNAP enzyme inhibition by screening hits, dose response, selectivity assay for mouse IAP inhibitor project, biochemical, human TNAP, uHTS hits (AID 488906); type: functional
T1 sequence (P05186 whole entry): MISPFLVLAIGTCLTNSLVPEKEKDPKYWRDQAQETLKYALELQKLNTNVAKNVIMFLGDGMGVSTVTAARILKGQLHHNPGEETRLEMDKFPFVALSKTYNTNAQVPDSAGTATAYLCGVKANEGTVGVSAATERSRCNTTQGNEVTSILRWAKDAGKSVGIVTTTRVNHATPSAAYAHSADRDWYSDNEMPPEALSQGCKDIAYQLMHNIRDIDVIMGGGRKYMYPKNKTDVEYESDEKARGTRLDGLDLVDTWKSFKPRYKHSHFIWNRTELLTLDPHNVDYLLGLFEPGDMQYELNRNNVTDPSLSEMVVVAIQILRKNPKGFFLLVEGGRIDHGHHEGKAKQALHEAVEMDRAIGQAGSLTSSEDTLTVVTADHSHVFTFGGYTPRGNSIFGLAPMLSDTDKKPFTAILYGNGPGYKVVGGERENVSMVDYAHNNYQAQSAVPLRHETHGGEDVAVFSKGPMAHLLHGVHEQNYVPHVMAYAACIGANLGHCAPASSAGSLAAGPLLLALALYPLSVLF

[4] = target: Dual specificity tyrosine-phosphorylation-regulated kinase 1A (Rattus norvegicus, UniProt Q63470); type: biochemical, Homo sapiens
[5] = target: Protein disulfide-isomerase (Homo sapiens, UniProt P07237); test: inhibition of PDI-driven insulin aggregation – biochemical, turbidity, absorbance, cherry-picked samples, dose response (AID 602350); type: functional
[6] = Trypanosoma cruzi growth suppression in host cells – NIH3T3 host cells, beta-gal luminescence, confirmation (AID 2044); type: functional, cell-based;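 further: intracellular parasites grown in NIH/3T3 mouse fibroblasts as host cells; luminescent beta-galactosidase reporter signal from transgenic T. cruzi replicating inside host cells; inhibitors lower the luminescence signal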
[7] = NIH3T3 cell viability loss – ATP luminescence, mouse fibroblasts, counter-screen, dose response (AID 2010); type: functional, cell-based;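 further: cells exposed to compound for about 90 hours before reading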
[8] = target: Protein Wnt-3a (Mus musculus, UniProt P27467); test: antagonism of Wnt3a pathway luciferase reporter – Wnt-LIGHT cells, luminescence, selectivity assay for Gli-SUFU antagonist project, dose response (AID 651570); type: functional; conditions: read-out: IC50_Mean;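 further: Wnt-LIGHT reporter cells stimulated with conditioned medium from Wnt3a-producing cells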
[9] = target: Benomyl/methotrexate resistance protein (Candida albicans, UniProt P28873); test: Candida albicans Mdr1 pump inhibition curves – singleplex, Cherry Pick1 hits, dose response (AID 588608); type: functional
[10] = target: Melanocortin receptor 4 (Homo sapiens, UniProt P32245); type: functional, cell-based;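 further: Cell-based assay with luminescence read-out, confirmatory dose-response testing for agonist activity of biased ligands at MC4R; human U2OS cells with tagged receptor and beta-arrestin; potency of agonists that increase receptor coupling to beta-arrestin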
[11] = target: Alkaline phosphatase, placental type (Homo sapiens, UniProt P05187); test: human placental alkaline phosphatase inhibition – biochemical, luminescence, confirmation (AID 1512); type: functional
[12] = inhibition of ARNT PAS-B/TACC3 complex formation – biochemical, AlphaScreen, cherry-picked samples, confirmation (AID 651703); type: functional, Homo sapiens;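 further: His-tagged ARNT PAS-B domain paired with GST-TACC3 E629A dimer coactivator fragment; potency of inhibitors that break up the complex and lower AlphaScreen signal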
[13] = target: T2, Sentrin-specific protease 8 (Homo sapiens, UniProt Q96LD8); test: inhibition of human SENP8 cleavage activity – biochemical, luminescence, SAR follow-up (AID 504501); type: functional
T2 sequence (Q96LD8 whole entry): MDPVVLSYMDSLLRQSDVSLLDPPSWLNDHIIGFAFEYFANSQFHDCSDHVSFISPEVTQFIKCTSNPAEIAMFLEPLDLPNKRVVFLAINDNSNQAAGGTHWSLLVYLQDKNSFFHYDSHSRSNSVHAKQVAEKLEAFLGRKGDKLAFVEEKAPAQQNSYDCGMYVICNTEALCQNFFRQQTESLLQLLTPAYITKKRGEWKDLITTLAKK

[14] = target: T3, Caspase-3 (Homo sapiens, UniProt P42574); test: SAR Analysis of small molecule inhibitors of Sentrin-specific proteases (SENPs) using a Caspase-3 Selectivity assay. [Related pubchem assays (depositor defined):AID2540, AID2599, AID434973, AID489001]; type: functional
T3 sequence (P42574 whole entry): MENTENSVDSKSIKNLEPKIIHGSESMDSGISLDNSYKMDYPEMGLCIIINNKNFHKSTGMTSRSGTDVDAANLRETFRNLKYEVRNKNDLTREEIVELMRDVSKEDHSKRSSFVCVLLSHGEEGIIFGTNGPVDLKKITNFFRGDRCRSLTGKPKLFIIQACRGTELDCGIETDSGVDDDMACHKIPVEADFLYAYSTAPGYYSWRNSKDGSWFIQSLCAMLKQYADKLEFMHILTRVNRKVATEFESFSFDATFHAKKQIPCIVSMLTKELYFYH

[15] = target: T4, Sentrin-specific protease 6 (Homo sapiens, UniProt Q9GZR1); test: SAR Analysis of small molecule inhibitors of Sentrin-specific protease 6 (SENP6) using a Luminescent assay. [Related pubchem assays (depositor defined):AID2582, AID2599]; type: functional
T4 sequence (Q9GZR1 whole entry): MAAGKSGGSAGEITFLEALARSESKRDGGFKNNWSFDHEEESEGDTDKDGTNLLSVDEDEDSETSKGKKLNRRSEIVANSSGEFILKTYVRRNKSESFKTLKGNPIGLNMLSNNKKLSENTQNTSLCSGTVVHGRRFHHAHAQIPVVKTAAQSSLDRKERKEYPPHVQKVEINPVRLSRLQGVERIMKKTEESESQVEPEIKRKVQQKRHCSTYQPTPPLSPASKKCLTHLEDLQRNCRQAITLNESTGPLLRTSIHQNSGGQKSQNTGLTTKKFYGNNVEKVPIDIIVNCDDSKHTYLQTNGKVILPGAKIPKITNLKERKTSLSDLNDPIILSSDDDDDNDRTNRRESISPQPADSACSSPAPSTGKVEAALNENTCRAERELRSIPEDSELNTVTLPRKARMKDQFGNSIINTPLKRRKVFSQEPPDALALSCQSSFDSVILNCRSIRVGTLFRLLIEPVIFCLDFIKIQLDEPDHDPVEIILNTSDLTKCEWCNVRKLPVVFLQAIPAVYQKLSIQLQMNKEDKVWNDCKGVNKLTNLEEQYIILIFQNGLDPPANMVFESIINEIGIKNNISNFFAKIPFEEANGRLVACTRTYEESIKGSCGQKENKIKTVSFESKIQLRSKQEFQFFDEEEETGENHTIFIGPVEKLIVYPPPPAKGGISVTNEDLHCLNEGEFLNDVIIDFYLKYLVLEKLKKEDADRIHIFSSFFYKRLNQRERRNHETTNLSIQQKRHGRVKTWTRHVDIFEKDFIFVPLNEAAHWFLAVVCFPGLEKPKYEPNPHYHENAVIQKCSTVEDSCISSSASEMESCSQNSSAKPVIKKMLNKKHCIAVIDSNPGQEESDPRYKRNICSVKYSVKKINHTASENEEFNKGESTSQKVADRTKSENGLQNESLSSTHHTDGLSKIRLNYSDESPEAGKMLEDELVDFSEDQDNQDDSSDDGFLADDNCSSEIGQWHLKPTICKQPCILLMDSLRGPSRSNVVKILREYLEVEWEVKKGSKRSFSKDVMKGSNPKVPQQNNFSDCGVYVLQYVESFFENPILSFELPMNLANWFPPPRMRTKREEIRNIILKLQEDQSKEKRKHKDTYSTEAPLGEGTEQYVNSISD

[16] = target: T5, Sentrin-specific protease 7 (Homo sapiens, UniProt Q9BQF6); test: inhibition of human SENP7 cleavage activity – biochemical, luminescence, SAR follow-up (AID 504497); type: functional
T5 sequence (Q9BQF6 whole entry): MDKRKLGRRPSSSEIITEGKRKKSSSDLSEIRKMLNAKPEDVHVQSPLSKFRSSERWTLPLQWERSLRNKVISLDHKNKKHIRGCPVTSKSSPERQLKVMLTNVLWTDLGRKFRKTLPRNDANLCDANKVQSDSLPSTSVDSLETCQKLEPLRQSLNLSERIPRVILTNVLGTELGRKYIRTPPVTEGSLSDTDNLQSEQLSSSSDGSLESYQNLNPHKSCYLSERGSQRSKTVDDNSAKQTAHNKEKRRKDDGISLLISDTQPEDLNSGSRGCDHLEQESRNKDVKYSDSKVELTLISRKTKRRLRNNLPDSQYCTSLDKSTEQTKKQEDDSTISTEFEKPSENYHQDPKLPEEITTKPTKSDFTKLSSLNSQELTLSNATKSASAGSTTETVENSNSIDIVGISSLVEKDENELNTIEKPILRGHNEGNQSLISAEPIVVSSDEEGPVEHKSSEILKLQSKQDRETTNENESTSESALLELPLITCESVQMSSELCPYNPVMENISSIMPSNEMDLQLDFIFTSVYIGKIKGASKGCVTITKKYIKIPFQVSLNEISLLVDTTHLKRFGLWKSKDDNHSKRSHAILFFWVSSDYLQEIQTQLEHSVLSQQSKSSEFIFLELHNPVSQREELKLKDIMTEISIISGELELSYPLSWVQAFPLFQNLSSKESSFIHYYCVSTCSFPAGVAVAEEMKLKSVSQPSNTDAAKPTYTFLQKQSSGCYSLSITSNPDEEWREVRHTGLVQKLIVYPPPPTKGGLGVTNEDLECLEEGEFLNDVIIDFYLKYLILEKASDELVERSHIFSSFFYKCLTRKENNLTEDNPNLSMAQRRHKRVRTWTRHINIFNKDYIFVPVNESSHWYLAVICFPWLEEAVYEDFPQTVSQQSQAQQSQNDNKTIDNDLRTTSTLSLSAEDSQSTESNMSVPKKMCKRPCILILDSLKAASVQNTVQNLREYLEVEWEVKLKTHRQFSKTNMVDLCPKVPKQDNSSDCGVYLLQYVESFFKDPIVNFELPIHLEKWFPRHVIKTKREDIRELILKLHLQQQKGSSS

[17] = target: Melanin-concentrating hormone receptor 1 (Homo sapiens, UniProt Q99705); test: Late-stage fluorescence-based counterscreen for antagonists of the G-protein coupled receptor 7 (GPR7): cell-based dose response assay to identify antagonists of the melanin-concentrating hormone receptor 1 (MCHR1) Set 6.; type: functional
[18] = target: Neuropeptides B/W receptor type 1 (Homo sapiens, UniProt P48145); test: human NPBW1 receptor blockade, IC50 – cell-based, fluorescence, dose response, set 6, late-stage follow-up (AID 588583); type: functional
[19] = target: Hepatocyte nuclear factor 4-alpha (Homo sapiens, UniProt P41235); type: functional, cell-based;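 further: biochemical luminescence-based dose-response counterscreen measuring inhibition of HNF4 dimerization, run alongside a screen for blockers of ABHD5–perilipin-5 interaction; split luciferase complementation of HNF4 fusion proteins in cell lysate measuring dimerization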
[20] = target: T6, Heat shock factor protein 1 (Mus musculus, UniProt P38532); test: decrease of HSF1-responsive luciferase luminescence – cell-based, NIH3T3, dose retest, confirmation (AID 2382); type: functional;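 further: NIH3T3 fibroblasts with HSF1-driven luciferase reporter stressed by proteasome inhibitor MG132; luminescence from HSF1-driven luciferase expression after 8 hours of MG132 stress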
T6 sequence (P38532 whole entry): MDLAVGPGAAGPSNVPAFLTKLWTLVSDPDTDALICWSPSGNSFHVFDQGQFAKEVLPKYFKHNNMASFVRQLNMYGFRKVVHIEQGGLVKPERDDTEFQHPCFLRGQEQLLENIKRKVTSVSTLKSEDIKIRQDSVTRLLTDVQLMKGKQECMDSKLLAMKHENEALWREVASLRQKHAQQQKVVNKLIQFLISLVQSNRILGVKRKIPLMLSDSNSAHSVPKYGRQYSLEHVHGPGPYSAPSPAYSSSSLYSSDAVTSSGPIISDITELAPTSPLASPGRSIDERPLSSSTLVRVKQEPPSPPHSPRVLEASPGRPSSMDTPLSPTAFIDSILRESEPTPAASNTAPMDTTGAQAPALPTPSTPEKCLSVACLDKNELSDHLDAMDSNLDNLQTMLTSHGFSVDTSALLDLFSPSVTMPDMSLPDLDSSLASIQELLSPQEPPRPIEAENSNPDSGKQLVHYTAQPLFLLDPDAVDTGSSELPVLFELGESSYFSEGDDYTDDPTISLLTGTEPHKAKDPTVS

[21] = target: Mitochondrial peptide methionine sulfoxide reductase (Bos taurus, UniProt P54149); type: functional;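 further: absorbance read-out, biochemical high-throughput dose-response screen for MsrA inhibitors, confirmatory; recombinant bovine MsrA coupled to E. coli TrxB with NADPH and selenocystamine; potency is for inhibitors of MsrA activity on DMSO substrate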
Sequence of Mitochondrial peptide methionine sulfoxide reductase (P54149 whole entry): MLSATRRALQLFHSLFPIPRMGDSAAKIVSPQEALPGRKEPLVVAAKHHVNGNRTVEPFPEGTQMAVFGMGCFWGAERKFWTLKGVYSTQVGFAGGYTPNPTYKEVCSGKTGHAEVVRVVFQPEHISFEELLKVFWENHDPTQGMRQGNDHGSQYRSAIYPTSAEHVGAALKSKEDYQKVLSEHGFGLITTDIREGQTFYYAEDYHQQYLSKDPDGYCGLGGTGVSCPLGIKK

Sequence of Melanin-concentrating hormone receptor 1 (Q99705 whole entry): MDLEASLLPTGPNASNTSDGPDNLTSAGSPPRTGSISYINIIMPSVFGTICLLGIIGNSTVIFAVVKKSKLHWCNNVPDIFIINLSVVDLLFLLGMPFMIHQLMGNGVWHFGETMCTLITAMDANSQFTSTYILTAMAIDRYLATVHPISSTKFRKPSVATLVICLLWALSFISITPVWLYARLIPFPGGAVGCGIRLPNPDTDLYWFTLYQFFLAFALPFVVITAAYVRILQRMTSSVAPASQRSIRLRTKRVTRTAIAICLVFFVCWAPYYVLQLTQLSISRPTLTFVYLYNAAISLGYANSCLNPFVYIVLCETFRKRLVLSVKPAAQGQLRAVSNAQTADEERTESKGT
Sequence of Protein disulfide-isomerase (P07237 whole entry): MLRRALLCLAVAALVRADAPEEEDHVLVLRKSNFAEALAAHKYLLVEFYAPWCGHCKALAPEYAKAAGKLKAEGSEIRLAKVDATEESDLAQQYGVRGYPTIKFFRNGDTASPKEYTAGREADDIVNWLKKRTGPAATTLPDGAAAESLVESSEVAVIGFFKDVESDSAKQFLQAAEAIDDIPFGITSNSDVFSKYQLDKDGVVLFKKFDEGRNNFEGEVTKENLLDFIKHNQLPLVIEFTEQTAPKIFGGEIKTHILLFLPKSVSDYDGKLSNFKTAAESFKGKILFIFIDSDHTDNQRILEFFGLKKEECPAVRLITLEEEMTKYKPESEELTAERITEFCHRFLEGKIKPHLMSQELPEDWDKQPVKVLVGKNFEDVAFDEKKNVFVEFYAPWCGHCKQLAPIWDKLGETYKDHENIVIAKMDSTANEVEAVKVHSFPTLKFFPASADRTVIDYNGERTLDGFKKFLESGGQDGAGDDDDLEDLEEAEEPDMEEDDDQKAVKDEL
Sequence of Neuropeptides B/W receptor type 1 (P48145 whole entry, the tested form may be a part): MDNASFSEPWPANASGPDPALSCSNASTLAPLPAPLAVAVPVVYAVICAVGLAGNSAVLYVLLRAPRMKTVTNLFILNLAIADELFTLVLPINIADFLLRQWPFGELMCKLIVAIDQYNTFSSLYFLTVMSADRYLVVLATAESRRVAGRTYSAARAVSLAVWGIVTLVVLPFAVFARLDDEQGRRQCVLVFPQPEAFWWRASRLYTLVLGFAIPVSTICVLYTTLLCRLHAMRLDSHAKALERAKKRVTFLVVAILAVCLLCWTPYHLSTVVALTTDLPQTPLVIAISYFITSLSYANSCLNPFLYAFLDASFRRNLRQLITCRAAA
Sequence of Alkaline phosphatase, placental type (P05187 whole entry, the tested form may be a part): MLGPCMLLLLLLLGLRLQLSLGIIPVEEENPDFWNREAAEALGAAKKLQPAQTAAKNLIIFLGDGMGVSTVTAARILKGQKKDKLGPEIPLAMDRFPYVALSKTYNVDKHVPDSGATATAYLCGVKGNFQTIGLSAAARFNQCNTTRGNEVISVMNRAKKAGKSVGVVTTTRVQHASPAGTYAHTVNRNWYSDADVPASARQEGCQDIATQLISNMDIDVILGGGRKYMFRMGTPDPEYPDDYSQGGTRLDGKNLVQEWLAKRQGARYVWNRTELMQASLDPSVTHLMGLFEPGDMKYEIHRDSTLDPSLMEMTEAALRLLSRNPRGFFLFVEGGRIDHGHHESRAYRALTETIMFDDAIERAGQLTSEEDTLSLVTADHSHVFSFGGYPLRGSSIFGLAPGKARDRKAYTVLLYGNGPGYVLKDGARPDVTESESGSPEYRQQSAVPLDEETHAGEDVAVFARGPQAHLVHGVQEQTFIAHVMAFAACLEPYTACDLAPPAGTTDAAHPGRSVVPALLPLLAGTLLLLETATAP
Sequence of Intestinal-type alkaline phosphatase (Mus musculus, UniProt P24822) (P24822 whole entry): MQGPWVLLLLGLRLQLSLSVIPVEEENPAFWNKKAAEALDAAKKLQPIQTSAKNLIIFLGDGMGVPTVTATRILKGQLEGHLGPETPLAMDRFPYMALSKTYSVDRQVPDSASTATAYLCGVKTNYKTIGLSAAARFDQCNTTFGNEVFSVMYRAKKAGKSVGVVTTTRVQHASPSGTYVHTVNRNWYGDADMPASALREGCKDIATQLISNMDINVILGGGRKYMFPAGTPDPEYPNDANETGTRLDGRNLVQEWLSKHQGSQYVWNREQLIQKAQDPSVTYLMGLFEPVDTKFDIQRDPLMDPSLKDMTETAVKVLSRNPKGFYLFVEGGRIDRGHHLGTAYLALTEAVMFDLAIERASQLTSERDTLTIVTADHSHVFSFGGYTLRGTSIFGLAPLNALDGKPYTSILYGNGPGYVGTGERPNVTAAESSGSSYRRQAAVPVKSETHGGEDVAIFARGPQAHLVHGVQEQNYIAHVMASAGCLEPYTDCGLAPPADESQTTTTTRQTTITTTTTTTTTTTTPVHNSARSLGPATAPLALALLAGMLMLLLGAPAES
Sequence of Protein Wnt-3a (P27467 whole entry): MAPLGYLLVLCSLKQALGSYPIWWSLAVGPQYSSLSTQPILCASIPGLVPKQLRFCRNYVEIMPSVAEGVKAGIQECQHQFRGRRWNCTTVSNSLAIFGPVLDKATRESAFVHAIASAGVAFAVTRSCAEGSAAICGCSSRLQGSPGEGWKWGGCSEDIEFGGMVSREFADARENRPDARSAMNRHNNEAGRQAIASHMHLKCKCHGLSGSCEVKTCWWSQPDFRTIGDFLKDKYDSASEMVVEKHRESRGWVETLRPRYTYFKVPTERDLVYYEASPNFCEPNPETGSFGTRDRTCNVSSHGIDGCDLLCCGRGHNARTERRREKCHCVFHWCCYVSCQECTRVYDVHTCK
Sequence of Melanocortin receptor 4 (P32245 whole entry): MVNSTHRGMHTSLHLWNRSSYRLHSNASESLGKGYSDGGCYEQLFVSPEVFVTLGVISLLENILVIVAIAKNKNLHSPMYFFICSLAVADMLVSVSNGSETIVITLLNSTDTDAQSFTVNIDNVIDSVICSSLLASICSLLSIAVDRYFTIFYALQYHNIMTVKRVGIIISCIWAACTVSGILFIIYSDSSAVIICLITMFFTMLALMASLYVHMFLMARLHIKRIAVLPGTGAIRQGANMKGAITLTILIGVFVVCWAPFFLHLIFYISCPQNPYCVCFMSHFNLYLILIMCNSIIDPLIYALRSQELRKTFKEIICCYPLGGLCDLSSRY
Sequence of Benomyl/methotrexate resistance protein (P28873 whole entry): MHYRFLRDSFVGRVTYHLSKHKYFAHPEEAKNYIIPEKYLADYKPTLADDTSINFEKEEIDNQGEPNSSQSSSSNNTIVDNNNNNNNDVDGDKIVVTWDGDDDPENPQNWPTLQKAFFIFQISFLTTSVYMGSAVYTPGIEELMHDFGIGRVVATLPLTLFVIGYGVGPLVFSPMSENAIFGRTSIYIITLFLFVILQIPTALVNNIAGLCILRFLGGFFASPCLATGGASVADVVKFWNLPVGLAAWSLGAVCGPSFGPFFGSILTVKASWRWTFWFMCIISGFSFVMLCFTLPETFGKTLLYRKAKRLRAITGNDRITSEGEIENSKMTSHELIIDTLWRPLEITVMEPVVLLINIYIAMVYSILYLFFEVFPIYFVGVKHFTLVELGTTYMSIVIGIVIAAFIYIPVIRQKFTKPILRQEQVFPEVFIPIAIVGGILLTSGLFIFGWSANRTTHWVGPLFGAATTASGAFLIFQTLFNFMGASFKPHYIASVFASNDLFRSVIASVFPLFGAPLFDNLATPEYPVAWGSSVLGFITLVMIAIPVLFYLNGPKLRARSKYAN
Sequence of Intestinal-type alkaline phosphatase (Homo sapiens, UniProt P09923) (P09923 whole entry): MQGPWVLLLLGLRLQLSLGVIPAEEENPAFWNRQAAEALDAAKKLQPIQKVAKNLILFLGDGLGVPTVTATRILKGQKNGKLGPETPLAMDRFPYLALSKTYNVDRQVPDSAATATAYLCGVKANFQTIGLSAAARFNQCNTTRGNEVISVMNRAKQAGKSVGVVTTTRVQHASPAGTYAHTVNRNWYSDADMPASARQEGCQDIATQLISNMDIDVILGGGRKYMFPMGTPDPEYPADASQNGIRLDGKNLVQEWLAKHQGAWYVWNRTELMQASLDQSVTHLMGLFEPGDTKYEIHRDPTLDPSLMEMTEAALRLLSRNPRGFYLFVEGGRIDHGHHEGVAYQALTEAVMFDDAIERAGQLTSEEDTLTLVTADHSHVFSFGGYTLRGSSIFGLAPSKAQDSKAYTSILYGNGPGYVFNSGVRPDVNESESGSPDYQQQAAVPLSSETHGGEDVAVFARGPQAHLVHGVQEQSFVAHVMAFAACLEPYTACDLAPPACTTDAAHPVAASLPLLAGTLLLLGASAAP
Sequence of Hepatocyte nuclear factor 4-alpha (P41235 whole entry, the tested form may be a part): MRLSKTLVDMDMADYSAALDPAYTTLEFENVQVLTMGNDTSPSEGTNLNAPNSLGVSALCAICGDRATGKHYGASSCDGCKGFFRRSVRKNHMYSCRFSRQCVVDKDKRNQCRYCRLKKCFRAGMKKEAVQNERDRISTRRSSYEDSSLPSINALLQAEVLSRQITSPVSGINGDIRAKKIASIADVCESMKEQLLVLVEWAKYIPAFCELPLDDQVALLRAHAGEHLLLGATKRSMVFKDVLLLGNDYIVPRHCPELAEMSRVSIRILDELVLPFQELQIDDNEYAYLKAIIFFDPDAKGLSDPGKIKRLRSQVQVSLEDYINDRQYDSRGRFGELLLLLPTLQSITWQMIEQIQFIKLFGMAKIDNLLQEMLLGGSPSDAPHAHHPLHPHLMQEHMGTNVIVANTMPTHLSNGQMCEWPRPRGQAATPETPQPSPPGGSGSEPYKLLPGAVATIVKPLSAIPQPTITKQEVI

## C[C@@H]1O[C@@H](O[C@H]2[C@H](O)[C@@H](O)[C@H](Oc3c(-c4ccc(O)c(O)c4)oc4cc(O)cc(O)c4c3=O)O[C@@H]2CO)[C@H](O)[C@H](O)[C@H]1O
[1]
  EC50: 22 µM (active)
[2]
  IC50: 5.66 µM (active)
[3]
  IC50: 10.8 µM (active)
[4]
  AC50: 11.4 µM (active)
[5]
  AC50: 4.28 µM (active)

## c1ccc(-c2cn3c([n+]2-c2ccccc2)SCC3)cc1
[6]
  EC50: 1.92 µM (active)
[7]
  EC50: > 60 µM (not active)
[8]
  IC50: 37.6 µM (inactive)

## COc1ccccc1-c1nc(C(N)=O)c2[nH]c(=O)n(-c3cccc(C)c3)c2n1
[9]
  EC50: 17.2 µM (active)

## CCOC(=O)c1ccc(-c2ccc(/C=C(\C#N)C(=O)NCc3cccs3)o2)cc1
[10]
  EC50: > 89.2 µM (inactive)

## COc1ccc(-c2cc(NCc3ccccn3)n3ncnc3n2)cc1
[11]
  IC50: > 100 µM (inactive)
[12]
  AC50: 91.5 µM (active)

## CCOC(=O)c1c(-c2ccc(-c3ccccc3)cc2)csc1NC(=O)c1ccc(C)cc1
[13]
  IC50: > 99 µM (inactive)
[14]
  IC50: > 99 µM (inactive)
[15]
  IC50: > 99 µM (inactive)
[16]
  IC50: > 99 µM (inactive)

## Oc1ccccc1-c1noc(-c2ccccc2O)n1
[13]
  IC50: 3.6 µM (active)
[14]
  IC50: 0.97 µM (active)
[15]
  IC50: 3.5 µM (active)
[16]
  IC50: 2 µM (active)

## N#CC(C#N)c1cnn(Cc2cccc3ccccc23)c(=O)c1Cl
[17]
  IC50: > 20 µM (inactive)
[18]
  IC50: > 20 µM (inactive)

## CCC(C#N)c1c(Cl)cnn(Cc2cccc3ccccc23)c1=O (stereo not drawn)
[17]
  IC50: 2.17 µM (active)
[18]
  IC50: 2.17 µM (active)

## O=C(Nc1ccc2c(c1)OCCO2)C(c1ccccc1F)n1c(=O)c(-c2ccco2)nc2ccccc21 (stereo not drawn)
[19]
  IC50: 16.2 µM (inactive)

## CCCCc1[nH]nc2c1/C(=N/OCC)CC(C)(C)C2
[20]
  EC50: > 195 µM (not active)
[21]
  IC50: 155 µM (inactive)

## C[C@@H]1O[C@@H](Oc2c(-c3ccc(O)c(O)c3)oc3cc(O)cc(O)c3c2=O)[C@H](O)[C@H](O)[C@H]1O [QUERCITRIN]
[5]
  AC50: 2.48 µM (active)
